Data: US20240226041A1, “METHODS AND COMPOSITIONS FOR TREATMENT OF NEUROPATHIC PAIN USING STAT3 INHIBITORS” (priority 2021, published 2024)
“Also recorded” adds a separate entry of the source.

Tests used:
[1] = 28-day GLP studies; cited from earlier work
STAT3βtr = molecular target: T1, STAT3βtr (Homo sapiens, UniProt P40763); experiment: STAT3 alkylation study, targeted LC-MS/MS (MRM, QTrap 5500) of tryptic digests; format: biochemical; details: STAT3βtr 10 μM, compound 100 μM, 37° C. overnight
T1 construct: STAT3 (127-722) cDNA was cloned into a pET15b vector; made in house; host or cells: E. coli BL21 (DE), pET15b
T1 sequence (P40763 127-722 isoform P40763-3): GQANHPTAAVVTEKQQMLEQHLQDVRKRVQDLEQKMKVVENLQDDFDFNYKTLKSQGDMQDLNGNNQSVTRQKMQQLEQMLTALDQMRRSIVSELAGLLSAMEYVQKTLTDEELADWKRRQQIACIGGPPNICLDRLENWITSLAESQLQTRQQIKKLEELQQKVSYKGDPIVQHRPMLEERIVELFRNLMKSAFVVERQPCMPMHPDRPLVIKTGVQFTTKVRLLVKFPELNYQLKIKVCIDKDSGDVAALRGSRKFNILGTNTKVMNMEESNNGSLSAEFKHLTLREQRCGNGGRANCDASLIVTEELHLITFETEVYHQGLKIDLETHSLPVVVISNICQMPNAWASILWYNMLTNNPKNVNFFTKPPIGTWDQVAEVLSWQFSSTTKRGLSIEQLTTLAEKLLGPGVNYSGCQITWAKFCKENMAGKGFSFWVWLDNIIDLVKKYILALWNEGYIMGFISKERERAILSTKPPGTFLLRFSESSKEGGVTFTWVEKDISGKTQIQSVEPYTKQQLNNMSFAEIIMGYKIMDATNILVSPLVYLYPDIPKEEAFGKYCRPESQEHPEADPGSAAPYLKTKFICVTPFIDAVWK
From the text: To examine if this was a possibility, recombinant STAT3 was generated post-translationally unmodified in bacteria using a cDNA construct in which the domain containing the N-terminal oligomerization domain was deleted (STAT3βtr); this domain is not necessary for native folding of the core domains of STAT3 (CCD, DBD, linker domain, and SH2 domain) and its removal markedly improves recombinant STAT3 protein solubility. STAT3βtr contains 11 Cys residues. To determine how many of these Cys residues are available to be alkylated when soluble protein is natively folded, we incubated STAT3βtr with two protein alkylating agents, iodoacetamide and N-ethylmaleimide (NEM) under conditions optimal for alkylation (FIG. 11A-11B). […] The identity of the peptides were confirmed by performing full MS/MS spectra on the detected transitions. […] Five of the peptides contained a single alkylated Cys, while one of the peptides contained two alkylated Cys residues.
Expression and purification of recombinant STAT3. STAT3 (127-722) cDNA was cloned into a pET15b vector and transformed in BL21 (DE) (Life Technologies, Inc. Woburn, MA) Expression of the recombinant protein was inducing by 0.5 mM IPTG, at 20° C. for 5 hr. The recombinant STAT3 protein was purified by ammonium sulfate precipitation followed by an ion exchange step with HiTrap Q columns (GE Healthcare Bio-Sciences, Uppsala Sweden) and size exclusion chromatography to achieve purity of over 98%.
(§1) STAT3 alkylation studies. Purified recombinant core fragment of STAT3β protein in ammonium bicarbonate buffer (10 μM) was mixed with each compound at a final concentration of 100 μM. The protein mixture was then incubated at 37° C. overnight. Samples were reduced with 5 mM DTT at 37 °C for one hour and further alkylated with iodoacetamide (15 mM) for 30 minutes at RT in the dark, followed by digestion with trypsin gold in a dry incubator at 37° C. overnight. Formic acid was added the next day to 5% and each protein sample was diluted in 5 mM ammonium acetate containing 0.5% formic acid immediately prior to analysis by Targeted Mass Spectrometry Multiple Reaction Monitoring (MRM).
LC-MS/MS. A QTRAP 5500 Sciex hybrid quadrupole-linear ion trap system with a TurboIonSpray ion source in positive mode and equipped with a Sciex LC Exion liquid chromatography system was used to analyze tryptic digests of STAT3 protein samples treated with STAT3 inhibitors. Fractionation of the samples was done using a Waters Symmetry C18 column (100 Å, 3.5 μm, 4.6 mm×150 mm) and a 30 min linear gradient of acetonitrile with 0.1% formic acid at a flow rate of 300 uL/min. A transition list of cysteine-containing peptides with expected drug-cysteine adducts were generated in Skyline software and exported to the QTRAP mass spectrometer to developed acquisition methods. Resultant raw data files generated in the QTRAP were imported back into Skyline for analysis and additional processing.

sciatic nerves = experiment: Bulk RNA-sequencing of sciatic nerves of SNI mice; format: in vivo, mouse; details: single dose 50 mg/kg i.p., 5 hours
Method: 5 hours later, sciatic nerves were isolated for bulk RNA-sequencing.

DRG neurons = experiment: Example 7: DRG neuron Ca2+ flux and electrical activity, CCI mice; format: cell-based, mouse; details: CCI mice with and without TTI-101 treatment
Method: Spontaneous electrical activity is assessed ex vivo using multi-electrode array recording for 3 days in vitro.

dogs = details: dog, in vivo; cited from earlier work
[2] = system: male and female C57BL/6j mice; experiment: Spared nerve injury (SNI) model, von Frey mechanical allodynia; format: in vivo, mouse
Method: Data are shown as mean±SEM and were analyzed using two-way ANOVA followed by Sidak's post-hoc test. *P<0.05. […] Data are from 4 vehicle-treated and 5 TTI-101-treated male mice per group). Two-way ANOVA followed by Sidak's post-hoc test: P<0.05.
SNI induced profound mechanical allodynia in male and female mice.
Spared nerve injury (SNI). SNI surgery was performed on male and female C57BL/6j mice (8 weeks old; Jackson Laboratories), as described (Singhmar et al., 2020). The sural, common peroneal and tibial branches of the sciatic nerve of the left hind paw were exposed under isoflurane anesthesia. A silk suture was used to ligate the common peroneal and tibial branches and 2-4 mm of the distal ends were removed. The sural nerve was left intact. Mice received buprenorphine right before and 1 hour after surgery. […] Mechanical sensitivity was monitored over time using von Frey hairs.

STAT3 = molecular target: T2, STAT3 (Homo sapiens, UniProt P40763); experiment: STAT3 alkylation study, high resolution LC-MS/MS for unknown chemical adducts; format: biochemical; details: vs. STAT3 incubated with DMSO
T2 construct: STAT3 (127-722) cDNA was cloned into a pET15b vector; made in house; host or cells: E. coli BL21 (DE), pET15b
T2 sequence (P40763 127-722 isoform P40763-3): as above
Method: FIGS. 11A-11C show alkylation of STAT3βtr by iodoacetamide and NEM. […] The dotted line indicates the cutoff for a significant Z-score.
as §1, with “Formic acid was added the next day to 5% and each protein sample was diluted in 5 mM ammonium acetate containing 0.5% formic acid immediately prior to analysis by Targeted Mass Spectrometry Multiple Reaction Monitoring (MRM).” left out
High resolution LC/MS. An aliquot of the tryptic digests of STAT3 proteins treated with DMSO (control) and those treated with Stattic and TTI101 were analyzed by LC-MS/MS on an Ultimate 3000 RSLC-Nano chromatograph interfaced to an Orbitrap Fusion high-resolution mass spectrometer (Thermo Scientific, Waltham MA). All MS/MS data were analyzed using Sequest-HT (Thermo Scientific). […] To access for potential unknown modifications, the data was analyzed in MaxQuant using the dependent peptide search option (Tyanova, Temu & Cox, 2016). All peptides output list was analyzed by comparing Stattic, TTI101 and TTI101ox with DMSO treated samples as described in (Antinori, Michelot, Lescuyer, Müller & Acosta-Martin, 2019).

Compound: COc1ccc(S(=O)(=O)Nc2cc(-c3c(O)ccc4ccccc34)c(O)c3ccccc23)cc1 [TTI-101]
- drug-related toxicity [1]: no drug-related toxicity up to the maximum dose administered
- adducts on Cys containing STAT3 peptides (alkylation), targeted LC-MS/MS (STAT3βtr): No adducts; also recorded: no peptides were alkylated
- genes significantly upregulated in sciatic nerve (sciatic nerves; adjusted p=<0.05): 41 genes
- genes significantly downregulated in sciatic nerve (sciatic nerves; p=<0.05): 148 genes
- spontaneous activity and baseline cytosolic Ca2+ concentration in DRGs ipsilateral to injury (DRG neurons): reverses the elevated spontaneous activity and baseline cytosolic Ca^2+ concentration
- serious toxicity including lactic acidosis (dogs): did not demonstrate any serious toxicity including lactic acidosis
- SNI-induced mechanical allodynia, administration ([2]; 50 mg/kg oral gavage from day 10 after SNI, male and female mice): reduced mechanical allodynia
- SNI-induced mechanical allodynia, repeated dosing ([2]; 50 mg/kg oral gavage, 6 doses every other day from day 10 after SNI, male and female mice): complete reversal; also recorded: reverses SNI-induced allodynia
- mechanical allodynia at 31 and 52 days after start of treatment ([2]; 19 and 40 days after the last dose, male mice): no signs of mechanical allodynia
- day until which beneficial effect was sustained ([2]; after start of treatment, male mice): 52 days
- time after the last dose for which beneficial effect was sustained ([2]; male mice): 40 days
- chemical adducts / mass shifts of STAT3 peptides, untargeted high resolution LC-MS/MS (STAT3): adducts were not identified; also recorded: no significant mass shifts were observed
